Some test systems named below: NCI-H460 lung; M19-MEL melanoma; KM12 colon; OVCAR-4 ovarian; HCC-2998 colon; KM20L2 colon; U251 CNS; OVCAR-3 ovarian; MDA-MB-231 breast.
Holding throughout (test): DTP human tumour cell line panel, 48 h

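Grown in 96-well plates, cells were treated for 48 hours with each compound at five concentrations. Insufficient inhibition: endpoint recorded as highest concentration tested. GI50: concentration for 50% inhibition of growth. TGI: concentration producing complete growth inhibition.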

Regarding `CCCCCC/C(CC(=O)CCC(=O)NCCc1ccccc1)=N\NC(=O)c1ccc2ccccc2c1O`, the TGI (in general, the concentration giving total growth inhibition) with NCI-H460 lung is above 100 µM; in the test on M19-MEL melanoma, 88.4 µM; in the test with KM12 colon it was above 100 µM; in the test on OVCAR-4 ovarian it was above 100 µM; in the test with HCC-2998 colon, above 100 µM; in the test on KM20L2 colon it was above 100 µM. The TGI with U251 CNS and in the test on OVCAR-3 ovarian was above 100 µM each time.
`COC(=O)CCc1c(/C=C2\N=C(c3ccc[nH]3)C=C2OC)[nH]c(C)c1C(=O)OCc1ccccc1`: the GI50 (as a rule, the concentration giving 50% growth inhibition) was 0.958 µM in the test with NCI-H460 lung; 0.29 µM in the test with KM12 colon; 0.331 µM in the test on OVCAR-4 ovarian; 0.404 µM in the test with HCC-2998 colon; 0.17 µM in the test with MDA-MB-231 breast; 0.36 µM with U251 CNS. For the same compound, the 50% growth inhibitory concentration (GI50) with OVCAR-3 ovarian is 0.34 µM. Further, the concentration for total growth inhibition (TGI) is above 61.9 µM in the test with NCI-H460 lung; 4.98 µM with KM12 colon; above 100 µM in the test with OVCAR-4 ovarian; 6.04 µM in the test with HCC-2998 colon; 1.57 µM in the test on MDA-MB-231 breast; 2.28 µM in the test on U251 CNS. Also, in the test with OVCAR-3 ovarian, the TGI amounted to 1.64 µM.
`COc1ccc(-c2cc3c(N)ncnc3o2)cc1`: the GI50 in the test with NCI-H460 lung, in the test on KM12 colon, with OVCAR-4 ovarian, in the test on HCC-2998 colon, in the test with MDA-MB-231 breast and in the test on U251 CNS was above 25 µM in each case. In addition, the GI50 in the test with OVCAR-3 ovarian is above 25 µM. Besides, the TGI with NCI-H460 lung, in the test with KM12 colon, with OVCAR-4 ovarian, in the test on HCC-2998 colon, with MDA-MB-231 breast and with U251 CNS was above 25 µM in each case. This compound also showed a concentration for total growth inhibition (TGI) with OVCAR-3 ovarian above 25 µM.
As for `O=C(OCc1ccccc1)c1ccccc1-c1c2ccc(=O)cc-2oc2cc(OCc3ccccc3)ccc12`, the TGI with NCI-H460 lung is 35.8 µM; in the test with M19-MEL melanoma, above 100 µM; with KM12 colon it was 31.3 µM; with OVCAR-4 ovarian, above 100 µM; with HCC-2998 colon it was 56 µM; in the test with KM20L2 colon, above 100 µM. For the same compound, the figures for the TGI in the test with U251 CNS and with OVCAR-3 ovarian were 13.9 µM and 59.1 µM, respectively.
As to `COc1ccc(CNC(=O)c2c(C)n([O-])c3cc(F)c(F)cc3[n+]2=O)cc1`, the GI50 with NCI-H460 lung is 13.1 µM; in the test with KM12 colon it was 15.7 µM; in the test on OVCAR-4 ovarian it was 13.7 µM; with HCC-2998 colon, 2.07 µM; in the test on MDA-MB-231 breast it was 12.2 µM; in the test with U251 CNS, 12.8 µM. In the test on OVCAR-3 ovarian, the GI50 was 10 µM. In addition, the total growth inhibition concentration (TGI) in the test with NCI-H460 lung was 25.9 µM; with KM12 colon, 35.5 µM; in the test with OVCAR-4 ovarian it was 26.9 µM; in the test with HCC-2998 colon it was 5.77 µM; in the test with MDA-MB-231 breast, 25.5 µM; in the test on U251 CNS it was 25.5 µM. The compound also came in with a TGI in the test with OVCAR-3 ovarian of 21.6 µM.
Regarding `CC1SC(c2cccc(Cl)c2)N(NC(=O)C(O)c2ccccc2)C1=O` (stereo not given), the GI50 in the test with NCI-H460 lung was above 100 µM; in the test on KM12 colon it was above 100 µM; in the test on OVCAR-4 ovarian, 75.4 µM; in the test on HCC-2998 colon it was above 100 µM; in the test with MDA-MB-231 breast it was above 100 µM; with U251 CNS it was above 100 µM. In addition, the GI50 with OVCAR-3 ovarian is above 100 µM. Moreover, the TGI with NCI-H460 lung, with KM12 colon, with OVCAR-4 ovarian, in the test with HCC-2998 colon, in the test on MDA-MB-231 breast and with U251 CNS was above 100 µM throughout. The TGI with OVCAR-3 ovarian is above 100 µM.
On to `N#CC(CC(=O)O)=C(c1ccccc1)c1ccccc1`, for which the TGI with NCI-H460 lung, in the test with KM12 colon, with OVCAR-4 ovarian, in the test on HCC-2998 colon, with MDA-MB-231 breast and with U251 CNS was above 100 µM throughout. In the test on OVCAR-3 ovarian, this compound displayed a total growth inhibition concentration (TGI) above 100 µM.
Take `COc1ccc2c(c1)C(=O)c1c-2n(CCCNCCO)c(=O)c2cc([N+](=O)[O-])ccc12`: the GI50 in the test on NCI-H460 lung is below 0.01 µM; with KM12 colon, 0.0255 µM; in the test on OVCAR-4 ovarian, 0.0361 µM; in the test on HCC-2998 colon, below 0.0232 µM; in the test on MDA-MB-231 breast, 0.594 µM; with U251 CNS it was below 0.01 µM. Further, the 50% growth inhibitory concentration (GI50) with OVCAR-3 ovarian was 0.0171 µM. Besides, the TGI worked out at 0.0148 µM in the test with NCI-H460 lung; 0.739 µM with KM12 colon; 1.19 µM in the test on OVCAR-4 ovarian; 0.557 µM with HCC-2998 colon; 2.34 µM in the test with MDA-MB-231 breast; 1.03 µM with U251 CNS. This compound also gave a concentration for total growth inhibition (TGI) in the test on OVCAR-3 ovarian of 0.586 µM.
With `COC(=O)C1=C(O)C(C(=O)OC)[C@@]2(O)[C@@H](C(=O)OC)C(c3ccccc3Cl)C[C@@H]1[C@@H]2C(=O)OC` (stereo not given in full), the GI50 in the test with NCI-H460 lung is 10.7 µM; with KM12 colon, 6.5 µM; with OVCAR-4 ovarian, 3.44 µM; in the test on HCC-2998 colon, 14 µM; with MDA-MB-231 breast it was 6.56 µM; with U251 CNS it was 3.76 µM. Also, in the test on OVCAR-3 ovarian, the GI50 was 4.48 µM. In addition, the total growth inhibition concentration (TGI) with NCI-H460 lung is above 100 µM; in the test with KM12 colon, 21.2 µM; in the test with OVCAR-4 ovarian, 13.8 µM; in the test with HCC-2998 colon, 28.6 µM; in the test on MDA-MB-231 breast, 20.7 µM; in the test with U251 CNS, 15 µM. In the test on OVCAR-3 ovarian, this compound had a TGI of 16.1 µM.
Take `NC(N)=N/N=C/c1ccc(Br)cc1`: the GI50 in the test with NCI-H460 lung was 3.29 µM; in the test with KM12 colon it was 3.42 µM; with OVCAR-4 ovarian, 10.3 µM; with HCC-2998 colon it was 1.14 µM; in the test with MDA-MB-231 breast, 4.49 µM; in the test on U251 CNS, 3.58 µM. Further, the GI50 in the test on OVCAR-3 ovarian was 3.41 µM. Further, the TGI in the test on NCI-H460 lung was determined as 11.7 µM; in the test on KM12 colon, 15.5 µM; with OVCAR-4 ovarian, 31.6 µM; in the test on HCC-2998 colon, 3.16 µM; in the test with MDA-MB-231 breast it was 14 µM; in the test on U251 CNS, 15.4 µM. The TGI with OVCAR-3 ovarian stood at 9.23 µM.
As to `CCCCCCCCCCCCCCCC(N)c1ccccc1` (stereo not given), the GI50 in the test on NCI-H460 lung was 1.91 µM; in the test on KM12 colon, 1.77 µM; with OVCAR-4 ovarian it was 1.67 µM; in the test on HCC-2998 colon it was 1.67 µM; in the test with MDA-MB-231 breast it was 1.35 µM; in the test on U251 CNS, 1.68 µM. Further, the GI50 in the test with OVCAR-3 ovarian is 1.64 µM. The TGI was determined as 3.55 µM with NCI-H460 lung; 3.29 µM in the test on KM12 colon; 3.45 µM in the test on OVCAR-4 ovarian; 3.28 µM with HCC-2998 colon; 2.95 µM with MDA-MB-231 breast; 3.2 µM with U251 CNS. In the test with OVCAR-3 ovarian, this compound came in with a TGI of 3.08 µM.
